Test system: boar sperm cells
Assay: Motility of sperm in boar semen stored at 17° C. in sperm cell medium (Sperm Vison)
Format: cell-based
Method: Compositions comprising sperm cell media were prepared prior to collection by reconstituting Androhep Plus™ and the individual components indicated in the experiments below with microfiltered, deionized (Type I) water. Androhep Plus™ was prepared according to the manufacturer's instructions, except that additional components were added in an amount sufficient to give the concentrations indicated below. Each composition was transferred in 75-ml aliquots to 100-ml plastic bottles commercially available from Minitube of America (Verona, Wis.). Semen was collected (modified full ejaculate) from randomly selected, sexually mature boars (n=3) using the gloved hand technique. Following each collection, each ejaculate was evaluated for sperm cell concentration with an SDM5 photometer with a 546 nm filter and the percentage of motile cells was assessed with Sperm Vison™ using a plain glass slide and a 6 μl drop of semen. Aliquots of semen containing 1×10^9 motile spermatozoa from each of the three boars was transferred into each 75-ml aliquot of composition comprising sperm cell medium at the same temperature (36° C.±1° C.) to give a final concentration of 4×10^7 live sperm cells/ml. Following dispersion of the sperm cells in the composition, each sample was tested for percent motility. Samples were maintained in a semen storage unit at 17° C. The samples were gently mixed periodically during storage. […] Each aliquot was pre-warmed for 30 minutes in a dry block heater at 37° C. prior to motility testing. Motility testing was which was performed using the Sperm Vison™ module in the Prism Program and a plain glass slide pre-warmed to 37° C.

**Q.** Which results are given for `O=C(CO)[C@@H](O)[C@H](O)[C@H](O)CO` [fructose]?
**A.** Mean % motility (Table 7, Androhep Plus + 20 ng/L TGFβ-1, 0.8 ng/L TGFβ-2, 80 ng/L IGF-1, fructose 3.75 g/L, day 1): 94.9%; Mean % motility (Table 7, Androhep Plus + 20 ng/L TGFβ-1, 0.8 ng/L TGFβ-2, 80 ng/L IGF-1, fructose 3.75 g/L, day 5): 88.7%; Mean % motility (Table 7, Androhep Plus + 20 ng/L TGFβ-1, 0.8 ng/L TGFβ-2, 80 ng/L IGF-1, fructose 3.75 g/L, day 10): 88.7%; Mean % motility (Table 7, Androhep Plus + 20 ng/L TGFβ-1, 0.8 ng/L TGFβ-2, 80 ng/L IGF-1, fructose 3.75 g/L, day 20): 89.8%; Mean % motility (Table 7, Androhep Plus + 20 ng/L TGFβ-1, 0.8 ng/L TGFβ-2, 80 ng/L IGF-1, fructose 7.5 g/L, day 1): 96.9%; Mean % motility (Table 7, Androhep Plus + 20 ng/L TGFβ-1, 0.8 ng/L TGFβ-2, 80 ng/L IGF-1, fructose 7.5 g/L, day 5): 91.0%; Mean % motility (Table 7, Androhep Plus + 20 ng/L TGFβ-1, 0.8 ng/L TGFβ-2, 80 ng/L IGF-1, fructose 7.5 g/L, day 10): 88.3%; Mean % motility (Table 7, Androhep Plus + 20 ng/L TGFβ-1, 0.8 ng/L TGFβ-2, 80 ng/L IGF-1, fructose 7.5 g/L, day 20): 89.8%; Mean % motility (Table 7, Androhep Plus + 20 ng/L TGFβ-1, 0.8 ng/L TGFβ-2, 80 ng/L IGF-1, fructose 15 g/L, day 1): 94.3%; Mean % motility (Table 7, Androhep Plus + 20 ng/L TGFβ-1, 0.8 ng/L TGFβ-2, 80 ng/L IGF-1, fructose 15 g/L, day 5): 85.8%; Mean % motility (Table 7, Androhep Plus + 20 ng/L TGFβ-1, 0.8 ng/L TGFβ-2, 80 ng/L IGF-1, fructose 15 g/L, day 10): 89.3%; Mean % motility (Table 7, Androhep Plus + 20 ng/L TGFβ-1, 0.8 ng/L TGFβ-2, 80 ng/L IGF-1, fructose 15 g/L, day 20): 89.3%; Mean % motility (Table 7, Androhep Plus + 20 ng/L TGFβ-1, 0.8 ng/L TGFβ-2, 80 ng/L IGF-1, fructose 30 g/L, day 1): 94.7%; Mean % motility (Table 7, Androhep Plus + 20 ng/L TGFβ-1, 0.8 ng/L TGFβ-2, 80 ng/L IGF-1, fructose 30 g/L, day 5): 54.8%; Mean % motility (Table 7, Androhep Plus + 20 ng/L TGFβ-1, 0.8 ng/L TGFβ-2, 80 ng/L IGF-1, fructose 30 g/L, day 10): 37.4%; Mean % motility (Table 7, Androhep Plus + 20 ng/L TGFβ-1, 0.8 ng/L TGFβ-2, 80 ng/L IGF-1, fructose 30 g/L, day 20): 2.2%

**Q.** How did the Mean % motility (Table 8, Androhep Plus, inositol 0.25 g/L, day 1) turn out when `O[C@H]1[C@H](O)[C@@H](O)[C@H](O)[C@@H](O)[C@H]1O` [inositol] was run?
**A.** Its Mean % motility is 85.7%.

**Q.** What about the Mean % motility (Table 8, Androhep Plus, inositol 0.25 g/L, day 5) of the same compound?
**A.** Its Mean % motility is 88.0%.

**Q.** And the Mean % motility (Table 8, Androhep Plus, inositol 0.25 g/L, day 7)?
**A.** Its Mean % motility is 93.3%.

**Q.** And the Mean % motility (Table 8, Androhep Plus, inositol 0.25 g/L, day 10)?
**A.** Its Mean % motility is 78.3%.

**Q.** And the Mean % motility (Table 8, Androhep Plus, inositol 0.25 g/L, day 20)?
**A.** Its Mean % motility is 48.0%.

**Q.** And the Mean % motility (Table 8, Androhep Plus, inositol 0.5 g/L, day 1)?
**A.** Its Mean % motility is 94.7%.

**Q.** What about the Mean % motility (Table 8, Androhep Plus, inositol 0.5 g/L, day 5) of the same compound?
**A.** Its Mean % motility is 93.3%.

**Q.** And the Mean % motility (Table 8, Androhep Plus, inositol 0.5 g/L, day 7)?
**A.** Its Mean % motility is 92.7%.

**Q.** And the Mean % motility (Table 8, Androhep Plus, inositol 0.5 g/L, day 10)?
**A.** Its Mean % motility is 84.3%.

**Q.** And the Mean % motility (Table 8, Androhep Plus, inositol 0.5 g/L, day 20)?
**A.** Its Mean % motility is 70.3%.

**Q.** For `O=S(=O)([O-])[O-].[Zn+2]` [zinc sulfate], which Mean % motility (Table 6, base Androhep Plus, zinc sulfate 0.05 g/L, day 1) is on record?
**A.** Its Mean % motility is 83.3%.

**Q.** What about the Mean % motility (Table 6, base Androhep Plus, zinc sulfate 0.05 g/L, day 5) of the same compound?
**A.** Its Mean % motility is 83.7%.

**Q.** What about the Mean % motility (Table 6, base Androhep Plus, zinc sulfate 0.05 g/L, day 10) of the same compound?
**A.** Its Mean % motility is 87.7%.

**Q.** And the Mean % motility (Table 6, base Androhep Plus, zinc sulfate 0.05 g/L, day 20)?
**A.** The Mean % motility was 84.0%.

**Q.** And the Mean % motility (Table 6, base Androhep Plus, zinc sulfate 0.1 g/L, day 1)?
**A.** Its Mean % motility is 92.0%.

**Q.** What about the Mean % motility (Table 6, base Androhep Plus, zinc sulfate 0.1 g/L, day 5) of the same compound?
**A.** The Mean % motility was 93.3%.

**Q.** What about the Mean % motility (Table 6, base Androhep Plus, zinc sulfate 0.1 g/L, day 10) of the same compound?
**A.** The Mean % motility was 89.7%.

**Q.** And the Mean % motility (Table 6, base Androhep Plus, zinc sulfate 0.1 g/L, day 20)?
**A.** Its Mean % motility is 78.3%.

**Q.** What about the Mean % motility (Table 6, base Androhep Plus, zinc sulfate 0.2 g/L, day 1) of the same compound?
**A.** Its Mean % motility is 94.7%.

**Q.** And the Mean % motility (Table 6, base Androhep Plus, zinc sulfate 0.2 g/L, day 5)?
**A.** The Mean % motility was 93.3%.

**Q.** What about the Mean % motility (Table 6, base Androhep Plus, zinc sulfate 0.2 g/L, day 10) of the same compound?
**A.** The Mean % motility was 87.7%.

**Q.** What about the Mean % motility (Table 6, base Androhep Plus, zinc sulfate 0.2 g/L, day 20) of the same compound?
**A.** The Mean % motility was 87.0%.

**Q.** What about the Mean % motility (Table 6, base Androhep Plus, zinc sulfate 0.5 g/L, day 1) of the same compound?
**A.** The Mean % motility was 86.0%.

**Q.** And the Mean % motility (Table 6, base Androhep Plus, zinc sulfate 0.5 g/L, day 5)?
**A.** The Mean % motility was 85.7%.

**Q.** What about the Mean % motility (Table 6, base Androhep Plus, zinc sulfate 0.5 g/L, day 10) of the same compound?
**A.** Its Mean % motility is 89.3%.

**Q.** And the Mean % motility (Table 6, base Androhep Plus, zinc sulfate 0.5 g/L, day 20)?
**A.** Its Mean % motility is 82.5%.

**Q.** What about the Mean % motility (Table 6, base Androhep Plus, zinc sulfate 1.0 g/L, day 1) of the same compound?
**A.** The Mean % motility was 94.0%.

**Q.** What about the Mean % motility (Table 6, base Androhep Plus, zinc sulfate 1.0 g/L, day 5) of the same compound?
**A.** The Mean % motility was 73.0%.

**Q.** And the Mean % motility (Table 6, base Androhep Plus, zinc sulfate 1.0 g/L, day 10)?
**A.** Its Mean % motility is 87.3%.

**Q.** What about the Mean % motility (Table 6, base Androhep Plus, zinc sulfate 1.0 g/L, day 20) of the same compound?
**A.** The Mean % motility was 78.3%.
